Consider 23 compounds from patent publication US8785460B2, “Tricyclic compounds and use thereof” (Takeda Pharmaceutical Company Limited, priority 2008, dated 2014).

For orientation: melting point means the temperature, or range, at which the solid turns liquid.

`OC(c1ccc(Cl)c2nc3n(c12)CCCN3c1ccc(Cl)cc1Cl)(C(F)(F)F)C(F)(F)F` [Example 319, 2-[9-Chloro-1-(2,4-dichlorophenyl)-1,2,3,4-tetrahydropyrimido[1,2-a]benzimidazol-6-yl]-1,1,1,3,3,3-hexafluoropropan-2-ol] came in with a melting point of 237 to 240 °C.

The compound `Cc1nc(N2CCOCC2)ccc1N1CCCn2c1nc1c(Cl)ccc(C(OC(F)F)C(F)(F)F)c12` (centres unmarked) [Example 296, 9-Chloro-6-[1-(difluoromethoxy)-2,2,2-trifluoroethyl]-1-(2-methyl-6-morpholin-4-ylpyridin-3-yl)-1,2,3,4-tetrahydropyrimido[1,2-a]benzimidazole] displayed a melting point of 191 to 193 °C. As for `CCC(O)c1ccc(Cl)c2nc3n(c12)CCCN3c1ccc(Cl)cc1Cl` (single isomer, unassigned; (+)) [Example 439, (+)-1-[9-Chloro-1-(2,4-dichlorophenyl)-1,2,3,4-tetrahydropyrimido[1,2-a]benzimidazol-6-yl]propan-1-ol], the figure is 233 to 235 °C. Consider `CCC(=O)c1cccc2nc3n(c12)CCCN3c1ccc(Cl)cc1Cl` [Example 198, 1-[1-(2,4-Dichlorophenyl)-1,2,3,4-tetrahydropyrimido[1,2-a]benzimidazol-6-yl]propan-1-one], for which the melting point lay in the range of 195 to 196 °C. The same measure for `CCS(=O)(=O)Cc1ccc(Cl)c2nc3n(c12)CCCN3c1ccc(Cl)cc1Cl` [Example 461, 9-Chloro-1-(2,4-dichlorophenyl)-6-[(ethylsulfonyl)methyl]-1,2,3,4-tetrahydropyrimido[1,2-a]benzimidazole]: 300 to 302 °C; for `CCN(CC)c1cccc2nc3n(c12)CCC(=O)N3c1ccc(Cl)cc1Cl` [Example 19, 1-(2,4-Dichlorophenyl)-6-(diethylamino)-3,4-dihydropyrimido[1,2-a]benzimidazol-2(1H)-one]: 113 to 114 °C. As for `CCN(CC)c1cccc2nc3n(c12)CCCN3c1ccc(Cl)cc1Cl` [Example 20, 1-(2,4-Dichlorophenyl)-N,N-diethyl-1,2,3,4-tetrahydropyrimido[1,2-a]benzimidazol-6-amine], the melting point was 131 to 133 °C. As for `O=C(c1cccc2nc3n(c12)CCCN3c1ccc(Cl)cc1Cl)N1CC(O)C1` [Example 90, 1-{[1-(2,4-Dichlorophenyl)-1,2,3,4-tetrahydropyrimido[1,2-a]benzimidazol-6-yl]carbonyl}azetidin-3-ol], the figure is 257 to 258 °C. Take `O=C(c1cccc2nc3n(c12)CCCN3c1ccc(Cl)cc1Cl)C1CC1` [Example 199, Cyclopropyl[1-(2,4-dichlorophenyl)-1,2,3,4-tetrahydropyrimido[1,2-a]benzimidazol-6-yl]methanone]: the melting point was in the range of 189 to 190 °C. `CCN(CC)Cc1cccc2nc3n(c12)CCCN3c1ccc(Cl)cc1Cl` [Example 89, N-{[1-(2,4-Dichlorophenyl)-1,2,3,4-tetrahydropyrimido[1,2-a]benzimidazol-6-yl]methyl}-N-ethylethanamine] returned a melting point of 112 to 114 °C. For `CCC(O)c1cccc2nc3n(c12)CCCN3c1ccc(Cl)cc1Cl` (centres unmarked) [Example 92, 1-[1-(2,4-Dichlorophenyl)-1,2,3,4-tetrahydropyrimido[1,2-a]benzimidazol-6-yl]propan-1-ol], the melting point is 186 to 188 °C.

`Cc1nc(N2CCN(C)CC2)ccc1N1CCCn2c1nc1c(Cl)ccc(C(OC(F)F)C(F)(F)F)c12` (centres unmarked) [Example 297, 9-Chloro-6-[1-(difluoromethoxy)-2,2,2-trifluoroethyl]-1-[2-methyl-6-(4-methylpiperazin-1-yl)pyridin-3-yl]-1,2,3,4-tetrahydropyrimido[1,2-a]benzimidazole] yielded a melting point of 193 to 195 °C.

As for `CCC(C)Nc1cccc2nc3n(c12)CCCN3c1ccc(Cl)cc1Cl` (centres unmarked) [Example 207, 1-(2,4-Dichlorophenyl)-N-(1-methylpropyl)-1,2,3,4-tetrahydropyrimido[1,2-a]benzimidazol-6-amine], the melting point lay in the range of 180 to 181 °C. As for `CCC(CC)c1ccc(Cl)c2nc3n(c12)CCN3c1ccc(Cl)cc1C(N)=O` [Example 223, 5-Chloro-2-[8-chloro-5-(1-ethylpropyl)-2,3-dihydro-1H-imidazo[1,2-a]benzimidazol-1-yl]benzamide], the figure is > 300 °C; as for `CCOC(c1ccc(Cl)c2nc3n(c12)CCCN3c1ccc(OC)nc1C)C(F)(F)F` (centres unmarked) [Example 281, 9-Chloro-6-(1-ethoxy-2,2,2-trifluoroethyl)-1-(6-methoxy-2-methylpyridin-3-yl)-1,2,3,4-tetrahydropyrimido[1,2-a]benzimidazole], 168 to 170 °C; as for `CCN(CC)C(=O)c1cccc2nc3n(c12)CCCN3c1ccc(Cl)cc1Cl` [Example 88, 1-(2,4-Dichlorophenyl)-N,N-diethyl-1,2,3,4-tetrahydropyrimido[1,2-a]benzimidazole-6-carboxamide], 183 to 184 °C. Regarding `COc1nc(C)c(N2CCCn3c2nc2c(C#N)ccc(C(OC(F)F)C(F)(F)F)c23)c(C)n1` (centres unmarked) [Example 520, 6-[1-(Difluoromethoxy)-2,2,2-trifluoroethyl]-1-(2-methoxy-4,6-dimethylpyrimidin-5-yl)-1,2,3,4-tetrahydropyrimido[1,2-a]benzimidazole-9-carbonitrile], the melting point is 250 to 252 °C. The same measure for `CCC(OC(C)=O)c1ccc(Cl)c2nc3n(c12)CCCN3c1ccc(OC)nc1C` (single isomer, unassigned; (+)) [Example 267, (+)-1-[9-Chloro-1-(6-methoxy-2-methylpyridin-3-yl)-1,2,3,4-tetrahydropyrimido[1,2-a]benzimidazol-6-yl]propyl acetate]: 110 to 114 °C. As for `CCC(CC)c1ccc(Cl)c2nc3n(c12)CCN3C(=O)c1ccc(Cl)nc1` [Example 228, 8-Chloro-1-[(6-chloropyridin-3-yl)carbonyl]-5-(1-ethylpropyl)-2,3-dihydro-1H-imidazo[1,2-a]benzimidazole], the figure is 205 to 207 °C; as for `CCN(CC)c1cccc2nc3n(c12)CCOC3c1ccc(Cl)cc1Cl` (centres unmarked) [Example 501, 1-(2,4-Dichlorophenyl)-N,N-diethyl-3,4-dihydro-1H-[1,4]oxazino[4,3-a]benzimidazol-6-amine], 130 to 131 °C. The same measure for `CCC(O)c1ccc(Cl)c2nc3n(c12)CCCN3c1ccc(Cl)cc1Cl` (single isomer, unassigned; (-)) [Example 438, (−)-1-[9-Chloro-1-(2,4-dichlorophenyl)-1,2,3,4-tetrahydropyrimido[1,2-a]benzimidazol-6-yl]propan-1-ol]: 221 to 223 °C; for `CCN(CC)c1cccc2nc3n(c12)CC(CC(=O)O)N3c1ccc(Cl)cc1Cl` (centres unmarked) [Example 73, [1-(2,4-Dichlorophenyl)-5-(diethylamino)-2,3-dihydro-1H-imidazo[1,2-a]benzimidazol-2-yl]acetic acid]: 249 to 251 °C. Compound `OC(c1ccc(Cl)c2nc3n(c12)CCN3c1ccc(Cl)cc1Cl)(C1CC1)C1CC1` [Example 430, [8-Chloro-1-(2,4-dichlorophenyl)-2,3-dihydro-1H-imidazo[1,2-a]benzimidazol-5-yl](dicyclopropyl)methanol] returned a melting point of 238 to 239 °C.
